Source: paper PMC6735293, “Design, synthesis, and biological evaluation of novel androst-17β-amide structurally related compounds as dual 5α-reductase inhibitors and androgen receptor antagonists” (Journal of Enzyme Inhibition and Medicinal Chemistry, 2019)
Like-named read-outs stand apart in the source and are kept apart here.

How the values were obtained:
[1] = target: T1, 5α-reductase type 2 isozyme (Rattus norvegicus, UniProt P31214); experiment: Enzyme inhibition test, 5α-reductase type 2 (pH 5.5); type: biochemical
T1 sequence (P31214 1-254): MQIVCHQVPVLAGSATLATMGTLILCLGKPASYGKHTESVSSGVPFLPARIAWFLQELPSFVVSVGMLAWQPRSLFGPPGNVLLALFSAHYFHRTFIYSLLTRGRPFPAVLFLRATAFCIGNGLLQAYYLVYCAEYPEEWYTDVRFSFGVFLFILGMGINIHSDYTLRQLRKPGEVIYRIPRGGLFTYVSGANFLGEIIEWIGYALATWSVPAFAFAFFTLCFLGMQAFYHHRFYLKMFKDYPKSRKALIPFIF
Method: (§1) Female rats were sacrificed and liver were taken within 5 min. All the following steps were performed at 0–4 °C. 1 g liver was cut into 3 mm pieces and added to 3 times volume of PBS. The tissue was homogenized and centrifuged at 10,000 g for 30 min. The supernatant was collected and centrifuged repeatedly at 100,000 for 1 h. The pellet obtained was resuspended in phosphate buffer (contained 30% glycerol, 1:3 v/v) and stored at −70 °C. The incubation mixture contained 50 µL enzyme solution, 6 µL NADPH (80 µM), 6 µL T (20 µM), and 108 µL buffer with or without test compound. The negative control contained 50 µL enzyme solution, 6 µL NADPH (80 µM) and 114 µL buffer. The incubation was carried out for 30 min at 37 °C. The fluorescence decay rate was tested in 10 min at 37 °C.
(§2) The inhibitory activities of the synthesized compounds were then assessed towards the 5α-reductase 1 and 2 isozymes, respectively. Finasteride was used as positive control.

[2] = target: T2, 5α-reductase type 1 isozyme (Rattus norvegicus, UniProt P24008); experiment: Enzyme inhibition test, 5α-reductase type 1 (pH 6.6); type: biochemical
T2 sequence (P24008 1-259): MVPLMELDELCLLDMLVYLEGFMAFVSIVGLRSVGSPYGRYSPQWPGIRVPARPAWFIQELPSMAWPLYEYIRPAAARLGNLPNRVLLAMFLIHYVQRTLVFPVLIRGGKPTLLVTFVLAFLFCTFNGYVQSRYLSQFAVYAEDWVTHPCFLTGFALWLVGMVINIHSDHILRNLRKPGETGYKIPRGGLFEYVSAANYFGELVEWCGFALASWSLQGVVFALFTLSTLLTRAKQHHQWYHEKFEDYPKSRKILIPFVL
Method: as §1, §2

22RV1 cells = experiment: MTT anti-proliferation assay, T-stimulated 22RV1; type: cell-based, Human; details: for Effect on cell viability of T-treated 22RV1 cells: different concentrations of compound with 0.1 μM T, Figure 3
Method: Human prostate carcinoma 22RV1 (CRL-2505, ATCC) and PC-3 (CRL-1435, ATCC) cells were cultured in RPMI-1640 medium (Invitrogen), supplemented with 10% (v/v) foetal calf serum (FCS) (Invitrogen), 1% (v/v), penicillin and streptomycin (Invitrogen) at 37 °C with 5% CO2 in a humidified atmosphere. Fresh medium was given every second day and on the day before the experiments were done. Cells were passaged at preconfluent densities, using a solution containing 0.05% trypsin.
The anti-cancer activity in vitro was measured using the MTT assay. Exponentially growing cells were harvested and plated in 96-well plates at a concentration of 1 × 10^4 cells/well. After 24 h incubation at 37 °C under a humidified 5% CO2 to allow cell attachment, the cells in the wells were respectively treated with target compounds at various concentrations for 48 h. […] A solution of 3–(4,5-dimethylthizao1-2-y1)-2,5-diphenyltetrazolium bromide (MTT), was prepared at 5 mg/ml in phosphate buffered saline (PBS: 1.5 mM KH2PO4, 6.5 mM Na2HPO4, 137 mM NaCl, 2.7 mM KCl; pH 7.4). Of this solution 20 µl was added to each well. After incubation for 4 h at 37 °C in a humidified incubator with 5% CO2, the medium/MTT mixtures were removed, and the formazan crystals formed by the mitochondrial dehydrogenase activity of vital cells were dissolved in 100 µl of DMSO per well. The absorbance of the wells was read with a microplate reader at 570 nm. Effects of the drug cell viability were calculated using cell treated with DMSO as control.
The anti-proliferative activities were firstly evaluated against 22RV1 stimulated by 0.1 µM T or not. […] Although androst[3,2-c]pyrazoleis common in anabolic steroid, luckily these derivatives shown no androgen agonistic activity. The phenethylamino substituted compounds (7d, 8d, and 9d) and piperidine substituted compounds (7b, 8b, and 9b) were more efficient than others. […] As presented in Figure 3, 0.1 µm of T was selectedas the most adequate to induce proliferation of 22RV1 cells. […] Compound 9d caused a much more significant decrease in cell viability for all concentrations than flutamide. […]

[3] = 1 μM compound, pH 5.5, rat liver enzyme preparation, read-out: Type 2 (pH 5.5) Inh% (1μM)
[4] = 1 μM compound, pH 6.6, rat liver enzyme preparation, read-out: Type 1 (pH 6.6) Inh% (1 μM)
[5] = pH 5.5, read-out: Type 2 (pH 5.5) Inh% (1μM)
[6] = pH 6.6, read-out: Type 1 (pH 6.6) Inh% (1 μM)
[7] = pH 6.6, rat liver enzyme preparation, read-out: Type 1 (pH 6.6) IC50

Row | Structure (SMILES) | melting point [°C] | inhibition at 1 µM [1, 3] [%] | inhibition at 1 µM [2, 4] [%] | also measured
1 | CC(C)CNC(=O)[C@H]1CCC2C3CCC4=CC(=O)/C(=C\O)C[C@]4(C)C3CC[C@@]21C (stereo partly drawn) [Compound 7a, 2-hydroxymethylene-17β-(N-isobutyl-carboxamide)-androst-4-ene-3-one] | 152 to 158 | 24.2 ± 1.13 | 25 ± 9.68 | 
2 | C[C@]12CC[C@H]3[C@@H](CCC4=CC(=O)C(=CO)C[C@@]43C)[C@@H]1CC[C@@H]2C(=O)N1CCCCC1 [Compound 7b, 2-hydroxymethylene-17β-(piperidine-1-carbonyl)-androst-4-ene-3-one] | 105 to 110 | 49.9 ± 3.08 | 52.2 ± 12.3 | 
3 | CCN(CC)C(=O)[C@H]1CCC2C3CCC4=CC(=O)/C(=C\O)C[C@]4(C)C3CC[C@@]21C (stereo partly drawn) [Compound 7c, 2-hydroxymethylene-17β-(N,N-diethy-carboxamide)-androst-4-ene-3-one] | 153 to 159 | 24.5 ± 8.47 | 27.9 ± 4.01 | 
4 | COc1ccc(CCNC(=O)[C@H]2CCC3C4CCC5=CC(=O)/C(=C\O)C[C@]5(C)C4CC[C@@]32C)cc1OC (stereo partly drawn) [Compound 7d, 2-hydroxymethylene-17β-(N-(3,4-dimethoxyphenethyl)-carboxamide)-androst-4-ene-3-one] | 121 to 129 |  |  | inhibition at 1 µM [1, 5]: 69 ± 9.3%; IC50 [2]: 0.58 ± 0.06 µM; inhibition at 1 µM [2, 6]: 66.4 ± 4.37%
5 | C[C@]12CC[C@H]3[C@@H](CCC4=CC(=O)C(=CO)C[C@@]43C)[C@@H]1CC[C@@H]2C(=O)NC1CC1 [Compound 7e, 2-hydroxymethylene-17β-(N-cyclopropylamino-carbonyl)-androst-4-ene-3-one] | 125 to 130 | 45.8 ± 9.86 | 54.7 ± 5.94 | 
6 | C=C1C[C@@]2(C)C(=CC1=O)CCC1C2CC[C@@]2(C)C1CC[C@@H]2C(=O)NCC(C)C (stereo partly drawn) [Compound 8a, 2-methylene-17β-(N-isobutyl-carboxamide)-androst-4-ene-3-one] | 168 to 175 | 19.9 ± 12.9 | 31.1 ± 6.49 | 
7 | C=C1C[C@@]2(C)C(=CC1=O)CC[C@H]1[C@@H]3CC[C@H](C(=O)N4CCCCC4)[C@@]3(C)CC[C@@H]12 [Compound 8b, 2-methylene-17β-(piperidine-1-carbonyl)-androst-4-ene-3-one] |  | 21.2 ± 1.31 | 35.8 ± 9.58 | 
8 | C=C1C[C@@]2(C)C(=CC1=O)CCC1C2CC[C@@]2(C)C1CC[C@@H]2C(=O)N(CC)CC (stereo partly drawn) [Compound 8c, 2-methylene-17β-(N,N-diethy-carboxamide)-androst-4-ene-3-one] | 98 to 105 | 18.3 ± 4.61 | 25.8 ± 4.22 | 
9 | C=C1C[C@@]2(C)C(=CC1=O)CCC1C2CC[C@@]2(C)C1CC[C@@H]2C(=O)NCCc1ccc(OC)c(OC)c1 (stereo partly drawn) [Compound 8d, 2-methylene-17β-(N-(3,4-dimethoxyphenethyl)-carboxamide)-androst-4-ene-3-one] | 74 to 78 | 26.1 ± 10.3 | 24.8 ± 9.02 | 
10 | C=C1C[C@@]2(C)C(=CC1=O)CC[C@H]1[C@@H]3CC[C@H](C(=O)NC4CC4)[C@@]3(C)CC[C@@H]12 [Compound 8e, 2-methylene-17β-(N-cyclopropylamino-carbonyl)-androst-4-ene-3-one] | 135 to 142 | 20.9 ± 10.1 | 34.1 ± 10.1 | 
11 | CC(C)CNC(=O)[C@H]1CCC2C3CCC4=Cc5n[nH]cc5C[C@]4(C)C3CC[C@@]21C (stereo partly drawn) [Compound 9a, 17β-(N-isobutyl-carboxamide)-androst[3,2-c]pyrazole-4-ene] |  | 48.7 ± 3.08 | 53.1 ± 9.71 | 
12 | C[C@]12Cc3c[nH]nc3C=C1CCC1C2CC[C@@]2(C)C1CC[C@@H]2C(=O)N1CCCCC1 (stereo partly drawn) [Compound 9b, 17β-(Piperidine-1-carbonyl)-androst[3,2-c]pyrazole-4-ene] |  | 49.6 ± 5.75 | 59.2 ± 2.28 | IC50 [2, 7]: 0.63 ± 0.14 µM
13 | CCN(CC)C(=O)[C@H]1CCC2C3CCC4=Cc5n[nH]cc5C[C@]4(C)C3CC[C@@]21C (stereo partly drawn) [Compound 9c, 17β-(N,N-diethy-carboxamide)-androst[3,2-c]pyrazole-4-ene] | 111 to 118 | 63.6 ± 12.5 | 68 ± 12 | IC50 [2, 7]: 0.52 ± 0.06 µM
14 | COc1ccc(CCNC(=O)[C@H]2CCC3C4CCC5=Cc6n[nH]cc6C[C@]5(C)C4CC[C@@]32C)cc1OC (stereo partly drawn) [Compound 9d, 17β-(N-(3,4-dimethoxyphenethyl)-carboxamide)-androst[3,2-c]pyrazole-4-ene] |  |  |  | IC50 (22RV1 cells; Homo sapiens, 22Rv1, 48 h, read-out: IC50 anti-proliferative activity against 22RV1, T-stimulated group): 8.85 µM; Effect on cell viability of T-treated 22RV1 cells (22RV1 cells): inhibited cell proliferation in a dose-dependent manner; inhibition at 1 µM [1, 5]: 71.9 ± 3.4%; IC50 [2]: 0.09 ± 0.02 µM; inhibition at 1 µM [2, 6]: 80.1 ± 6.73%
15 | C[C@]12Cc3c[nH]nc3C=C1CCC1C2CC[C@@]2(C)C1CC[C@@H]2C(=O)NC1CC1 (stereo partly drawn) [Compound 9e, 17β-(N-cyclopropylamino-carbonyl)-androst[3,2-c]pyrazole-4-ene] |  |  |  | inhibition at 1 µM [1, 5]: 79.4 ± 2.47%; IC50 [2]: 0.23 ± 0.09 µM; inhibition at 1 µM [2, 6]: 70.8 ± 9.74%
16 | CC(C)(C)NC(=O)[C@H]1CC[C@H]2[C@@H]3CC[C@H]4NC(=O)C=C[C@]4(C)[C@H]3CC[C@]12C [Finasteride, finasteride, reference compound] |  |  | 73.7 ± 4.22 | inhibition at 1 µM [1, 5]: 70 ± 4.12%
17 | CC(C)C(=O)Nc1ccc([N+](=O)[O-])c(C(F)(F)F)c1 [flutamide, reference compound] |  |  |  | Effect on cell viability of T-treated 22RV1 cells (22RV1 cells): inhibited cell proliferation in a dose-dependent manner
